US10800815B2, “Kv1.3 potassium channel antagonists” (cgtx-Peptide Development GmbH, priority 2014, dated 2020)
Entries after “also recorded” stand apart in the source; their conditions may differ.

Experiments:
[1] = target: T1, Kv1.3 channels endogenously expressed in TEM cells (Homo sapiens, UniProt P22001); assay: Block of Kv1.3 currents in isolated human TEM cells (Example 4); assay type: cell-based; settings: incompletely folded peptide
T1 construct: endogenously expressed Kv1.3 channels in TEM cells; endogenous in cells
T1 sequence (P22001 whole entry): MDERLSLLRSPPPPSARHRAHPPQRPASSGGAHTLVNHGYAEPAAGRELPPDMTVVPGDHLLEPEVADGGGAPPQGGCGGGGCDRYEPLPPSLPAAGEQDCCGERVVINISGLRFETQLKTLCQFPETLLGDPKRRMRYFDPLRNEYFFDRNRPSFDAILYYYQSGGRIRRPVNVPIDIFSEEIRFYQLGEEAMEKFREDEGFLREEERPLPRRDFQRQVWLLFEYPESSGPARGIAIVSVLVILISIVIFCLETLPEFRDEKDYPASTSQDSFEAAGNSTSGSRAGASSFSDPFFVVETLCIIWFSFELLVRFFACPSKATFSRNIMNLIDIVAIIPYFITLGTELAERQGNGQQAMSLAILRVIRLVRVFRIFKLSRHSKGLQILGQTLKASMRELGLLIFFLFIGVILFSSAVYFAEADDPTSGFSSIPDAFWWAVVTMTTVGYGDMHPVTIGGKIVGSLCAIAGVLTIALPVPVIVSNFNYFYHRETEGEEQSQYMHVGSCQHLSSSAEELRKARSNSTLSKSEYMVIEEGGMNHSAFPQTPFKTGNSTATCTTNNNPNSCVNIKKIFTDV
Description: The insect cell line Spodoptera frugiperda (Sf21) was used in combination with a Baculovirus infection system for the heterologous expression of recombinant ion channels. Sf21 cells offer highly specific protein expression and correct posttranslational modifications resulting in functional channels with proposed comparability of electrophysiological parameters of ion channels in vivo. Therefore, it was necessary to compare the electrophysiological properties of the potassium selective ion channel Kv1.3 expressed in Sf21 cells and endogenously expressed Kv1.3 channels in TEM cells.
For the comparison of characteristic voltage dependent Kv1.3 channel activation a typical voltage protocol from −60 mV to +60 mV in 20 mV steps (activation pulse 200 ms) was used. Cells were clamped at a holding potential of −100 mV.
The maximal observed current, which clearly originates from Kv1.3 activity, and the applied voltage allows to assess the total conductivity of all Kv1.3 channels. Accordingly, the number of channels can be extracted using the known conductivity of a single Kv1.3 channel. […] By variation of the infection conditions, it is possible to control the expression level of Kv1.3 in Sf21 cells, according to the needs of the investigation. Under our standard conditions a maximal current of 2-5 nA, a conductance of 33-50 nS and a number of 2500-3800 channels per cell can be estimated. […]

hERG = target: T2, hERG (Homo sapiens, UniProt Q12809); assay: Patchliner automated patch clamp of hERG currents in HEK cells, two-point screening (Example 2); assay type: cell-based; settings: for Normalized Block of hERG current: steady state at end of application
T2 construct: expressed in transfected cells; host or cells: HEK cells stably expressing hERG
T2 sequence (Q12809 whole entry): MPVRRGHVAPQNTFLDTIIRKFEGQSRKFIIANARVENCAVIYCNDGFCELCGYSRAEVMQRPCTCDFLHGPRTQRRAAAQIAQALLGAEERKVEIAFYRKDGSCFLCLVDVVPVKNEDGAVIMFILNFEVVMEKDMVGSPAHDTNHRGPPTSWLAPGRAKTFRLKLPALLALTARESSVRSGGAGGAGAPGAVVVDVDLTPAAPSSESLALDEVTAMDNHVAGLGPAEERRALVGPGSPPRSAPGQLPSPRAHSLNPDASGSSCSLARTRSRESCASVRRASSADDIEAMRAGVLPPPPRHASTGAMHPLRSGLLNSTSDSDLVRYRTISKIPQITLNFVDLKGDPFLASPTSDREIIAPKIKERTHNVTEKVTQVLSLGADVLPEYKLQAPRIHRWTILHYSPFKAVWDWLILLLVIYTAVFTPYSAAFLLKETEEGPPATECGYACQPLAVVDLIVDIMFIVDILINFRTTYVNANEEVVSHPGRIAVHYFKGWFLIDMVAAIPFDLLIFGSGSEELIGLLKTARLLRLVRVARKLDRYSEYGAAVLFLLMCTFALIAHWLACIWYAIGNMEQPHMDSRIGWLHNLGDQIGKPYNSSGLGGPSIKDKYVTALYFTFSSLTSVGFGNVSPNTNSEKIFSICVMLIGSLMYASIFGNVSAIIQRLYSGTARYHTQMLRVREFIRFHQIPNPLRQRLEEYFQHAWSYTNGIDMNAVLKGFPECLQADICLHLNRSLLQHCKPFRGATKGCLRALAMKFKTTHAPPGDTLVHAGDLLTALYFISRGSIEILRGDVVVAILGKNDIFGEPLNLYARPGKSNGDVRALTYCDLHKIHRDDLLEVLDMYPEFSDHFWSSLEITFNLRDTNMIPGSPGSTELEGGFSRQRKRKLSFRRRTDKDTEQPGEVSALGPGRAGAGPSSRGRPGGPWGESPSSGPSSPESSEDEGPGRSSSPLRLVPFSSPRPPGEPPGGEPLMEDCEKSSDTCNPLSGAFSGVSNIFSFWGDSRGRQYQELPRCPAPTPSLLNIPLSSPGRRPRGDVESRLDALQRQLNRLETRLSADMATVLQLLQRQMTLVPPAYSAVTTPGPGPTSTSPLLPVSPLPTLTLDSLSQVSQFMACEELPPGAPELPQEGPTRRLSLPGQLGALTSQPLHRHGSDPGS
Protocol: To determine binding to Kv1.3, Jurkat cells endogenously expressing Kv1.3 were used. For binding to hERG, HEK cells stably expressing hERG were used.
Cell culture was performed using standard cell culture techniques. In brief, cells were grown on 10 cm culture dishes or T75 culture flasks in DMEM-based media. With a confluence of about 60-80%, cells were split every 2-3 days. For recordings on the Patchliner (Nanion), Jurkat cells were resuspended and then spinned in a centrifuge. Before spinning, HEK cells were treated with Trypsin, to detach them from the dish surface. After spinning, cells were resuspended in external recording buffer to a density of approximately 1-2 million cells per ml.
Internal recording solution: 50 mM KCl • 10 mM NaCl • 60 mM KF • 20 mM EGTA • 10 mM HEPES/KOH, pH 7.2, (Osm: ˜290 mOsm)
5 mM Mg-ATP and 0.3 mM Na-GTP were added fresh to the internal solution and pH adjusted to 7.2.
External recording buffer: 140 mM NaCl • 4 mM KCl • 1 mM MgCl2 • 2 mM CaCl2 • 5 mM D-Glucose monohydrate • 10 mM HEPES/NaOH pH 7.4, (Osm: ˜298 mOsm) Compounds
Electrophysiological recordings were performed with a Patchliner, recording up to 8 channels, simultaneously. The Patchliner is an automated patch clamp system utilizing borosilicate glass chips (NPC-16) for planar patch clamp, and operating via the PatchControlHT software. NPC-16 chips with a resistance of 3-5 MΩ for Jurkat cells and 2-3 MΩ for HEK cells were used for recordings. During recordings, cells were kept in a “cell hotel” where they were periodically pipetted up and down to maintain viability. […]
For pharmacology on hERG, peak amplitude at the 2nd −40 mV step (tail current) was calculated using online analysis functions in PatchMaster. The leak (calculated from the 1st step to −40 mV) was subtracted from this peak to calculate the true peak and these could be plotted as a function of time.
Values were exported to Excel to calculate concentration response curves in Igor. […] A Hill equation was fitted to estimate the IC50 for each compound and IC50 was calculated relative to maximum block. […]

[2] = tested on: antigen induced arthritis (AIA); assay: Antigen induced arthritis (AIA) rat model, knee joint swelling; assay type: in vivo; settings: for effect on knee swelling, curative treatment: 1 mg/kg BW i.v. daily, start on day 0 or day 1, vs vehicle
in vivo = assay type: in vivo; settings: rat, i.v., 750 μg/kg BW; listed as cgtx-544
Protocol: FIG. 34 Decrease of cgtx-544(Sing) in the serum of treated rats after i.v. injection. The concentration of unbound circulating cgtx-544(Sing) was calculated on the basis of a standard curve. Standard error of the mean is depicted in the error bars (n=6).
Rats received i.v. injections of cgtx-544(Sing) (750 μg/kg BW). Blood was withdrawn at time points 0, 1, 10 and 60 minutes. Subsequently, serum was prepared from blood samples. The cgtx-544 content in these samples was analyzed electrophysiologically by measuring the blocking effect on Kv1.3 channels expressed in CHO cells. […] In order to study the amount of unbound cgtx-544(Sing) in the rat, the amount of cgtx-544(Sing) present in the circulating blood at the time points referred above was calculated through a calibration curve. This calibration curve was obtained by adding known quantities of cgtx-544(Sing) to blood serum and subsequent electrophysiological measurements on Kv1.3 channels. The block of Kv1.3 currents by these spiked samples was similar to that obtained with cgtx-544(Sing) in the absence of serum (data not shown).

For `CC[C@H](C)[C@H](NC(=O)[C@@H](N)[C@@H](C)O)C(=O)N[C@H](C(=O)N[C@@H](CC(N)=O)C(=O)N[C@H](C(=O)N[C@@H](CCCCN)C(=O)N[C@H]1CSSC[C@@H]2NC(=O)[C@H](CCCCN)NC(=O)CNC(=O)[C@H](Cc3ccc(O)cc3)NC(=O)[C@@H]3CCCN3C(=O)[C@@H]3CSSC[C@@H](C(=O)O)NC(=O)[C@H](CCCNC(=N)N)NC(=O)[C@H](CC(N)=O)NC(=O)[C@@H]4CSSC[C@H](NC(=O)[C@@H]5CCCN5C(=O)[C@@H]5CCCN5C(=O)[C@H](CC(C)C)NC(=O)[C@H](CSSC[C@H](NC(=O)[C@H](CCCCN)NC(=O)[C@H](CCCNC(=N)N)NC(=O)[C@H](CC(N)=O)NC(=O)[C@H](CCSC)NC2=O)C(=O)N[C@@H](CCCCN)C(=O)N4)NC(=O)[C@H](CCC(N)=O)NC(=O)[C@H](CCCCN)NC(=O)[C@@H]2CCCN2C(=O)[C@H](CO)NC(=O)[C@H]([C@@H](C)O)NC1=O)C(=O)N[C@@H](CCCCN)C(=O)N[C@@H](C)C(=O)N[C@@H](CCC(N)=O)C(=O)N[C@@H]([C@@H](C)O)C(=O)NCC(=O)N3)C(C)C)[C@@H](C)CC` [Compound 7], the “Kv1.3 block on human TEM cells compared with Kv1.3 transfected Sf21 cells” value [1] was “the same values”, the “Normalized Block of hERG current” value (hERG; 5 μM) was 0.04 and the “Normalized Block of hERG current” value (hERG; 10 μM) was 0.07. For the same molecule, the “effect on hERG current” value (hERG; hERG expressing HEK cells) was “only low effects”, the “relative difference of knee swelling (normalized)” value ([2]; 1 mg/kg 1× daily i.v. from day −3) was 0.18±0.05 and the “reduction of knee swelling relative to the vehicle control group” value ([2]; 1 mg/kg 1× daily i.v., 24 h after arthritis induction) was 60%. The “effect on knee swelling after second single injection” value ([2]; 1 mg/kg BW i.v. 1×d1 and 1×d4, listed as cgtx-544) was “reduced again to a significant value; also recorded: statistically significant reduction in knee swelling”, the “effect on knee swelling, curative treatment” value ([2]; listed as cgtx-544) was “statistically significant reduction in knee swelling” and the “effect on knee swelling, curative treatment” value ([2]; listed as cgtx-544(Mix)) was “clear reducing, and statistically significant effect; also recorded: significant reduction in knee joint swelling”. For the same molecule, the “knee joint swelling versus untreated (excipient) controls” value ([2]; 1 mg/kg BW i.v. from day −3) was “clear reduction of the knee joint swelling”, the “knee diameters after seven days of treatment, curative” value ([2]; 1 mg/kg i.v. daily, start day 0 or day 1) was “nearly comparable to the non-induced, intra-individual control knee” and the “maximal reduction of knee swelling, curative treatment” value ([2]; 1 mg/kg i.v. daily, therapy started on day 0 immediately after arthritis induction) was 40%. The “maximal reduction of knee swelling, curative treatment” value ([2]; 1 mg/kg i.v. daily, therapy started on day 1) was 58%, the “effect on knee swelling, preventive treatment” value ([2]; 0.1, 1 and 5 mg/kg BW i.v. daily, day −3 to day 6, vs vehicle, listed as cgtx-544) was “clear reducing, dose dependent and statistically significant effect; also recorded: statistically significant reduction in knee swelling” and the “knee diameters after seven days of treatment, preventive” value ([2]; daily i.v. from day −3) was “nearly comparable to the non-induced, intra-individual control knee”. For the same molecule, the “maximal reduction of knee swelling, preventive treatment” value ([2]; daily i.v. from day −3) was 70%, the “effect on knee swelling after single injection” value ([2]; single i.v. injection 1 mg/kg BW on day 1 (1×d1), 24 h after application, listed as cgtx-544, 1 mg/kg) was “clear and statistically significant reduction of knee swelling; also recorded: statistically significant reduction in knee swelling; also recorded: strong and sustained effect” and the in vivo half-life (in vivo) was “approximately 26 min”.
